{
  "source": "patent US20140248383A1",
  "about": "“SLEEP QUALITY IMPROVING AGENT” (LION CORPORATION, priority 2011, published 2014)",
  "tested_on": "male C57BL/6 mice",
  "test": "Measurement of amount of activity of mice (sleep inducing effect)",
  "assay_type": "in vivo",
  "description": "When a sample has the function of inducing sleep, the amount of activity always decreases after administration of the sample. Therefore, the sleep inducing effect of each sample was evaluated by determining whether or not the administration of the sample solution to a mouse caused a reduction in the amount of activity.\n8-Week old or 9-week old male C57BL/6 mice were purchased from Japan SLC, Inc. and acclimatized for 3 to 6 days. The amount of activity during acclimatization was used to divide the mice into administration groups. Immediately before the onset of the dark period, Fraxinus excelsior L. extract was orally administered in an amount of 3 g/kg per body weight of a mouse (Example 1-1), or a 0.5% by mass aqueous methyl cellulose solution was orally administered in an amount of 10 mL/kg per body weight of a mouse (Comparative Example 1-1), and the amount of activity was measured for 24 hours after administration. Each administration group included 8 mice (n=8).\nThe amount of activity was measured under the following conditions. The mice were raised in individual cages, and an infrared camera was disposed above each cage. The imaging range of the infrared camera was divided into 64 sections, and the number of occurrences that the mouse crossed a section was measured. The number of occurrences was collected every 30 minutes. […]",
  "data": [
    {"smiles": "O=C1c2c(O)cc(O)cc2O[C@H](c2ccc(O)c(O)c2)[C@H]1O", "note": "[DIHYDROQUERCETIN, dihydroquercetin]", "values": [
      {"measurement": "cumulative amount of activity 6 hours after administration", "setting": "dihydroquercetin 2.7 g/kg oral immediately before dark period, n=4", "result": "4700 number of occurrences/6 hours"},
      {"measurement": "cumulative amount of activity 6 hours after administration compared to control solution", "setting": "dihydroquercetin 2.7 g/kg oral, n=4, significant difference at p<0.01", "result": "significantly lower"}
    ]}
  ]
}
